In the case of `Cn1c(C(F)(F)F)cc(=O)n(-c2cc(OS(=O)(=O)Cl)c(Cl)cc2F)c1=O`, the melting point fell in the range of 133 to 135 °C.

Take `CCCC(=O)CC1NC(=O)c2ccsc2-n2cccc21` (stereo unspecified): the melting point is 186 °C.

`CCCCCCCCSC(=O)n1cc2cc(C)c(NC(=O)c3cc(OC)nn3-c3ncccc3Cl)c(C(=O)NC(C)C)c2n1` returned a melting point of 98 to 102 °C.

For the compound `CNC(=N)Nc1nc(-c2ccc(OC)cc2)c(-c2ccc(OC)cc2)s1`, the melting point was 155 to 157 °C.

In turn, `COc1cc(OC)nc(Oc2cccc(NC(=O)C(C)(C)C)c2C(=O)O)n1` returned a melting point of 192 to 195 °C.

`CCOC(=O)c1cc2cc([N+](=O)[O-])ccc2s1` displayed a melting point of 163 °C.

`CN1C(=O)C(=O)c2cc(S(=O)(=O)N3CCC[C@H]3COc3ccccc3)ccc21` returned a melting point of 160 to 161 °C.

Compound `Nc1nc2sc(CCC3CCCCC3)nn2c(=O)c1[N+](=O)[O-]` came in with a melting point of 249 to 251 °C.

The compound `C[C@H](NC(=O)c1c[nH]c2ncc(-c3cn(-c4cc(C(F)(F)F)ccc4F)cn3)nc12)C(C)(C)C` came in with a melting point of more than 300 °C.

In the case of `Cn1cc(-c2cc(Cl)cc(Cl)c2)c(=O)c(-c2cc(Cl)cc(Cl)c2)c1`, the melting point fell in the range of 275 to 278 °C.

`COc1ccc(C2(CCN3CCC(O)(c4nc5ccccc5n4Cc4ccc(F)cc4)CC3)CCN(C(=O)c3ccccc3)C2)cc1OC` (stereo unspecified) gave a melting point of 111 to 114 °C.

In turn, `Clc1ccc(OCc2noc(-c3ccccc3)n2)cc1` showed a melting point of 96 to 102 °C.

`Cc1oc2ccccc2c1C(=O)N(Cc1ccccc1)Cc1ccc2c(Br)c(O)ccc2c1` gave a melting point of 184 to 185 °C.

`Cc1cc(C)c2nc(NCCCN3CCOCC3)n(Cc3nc(C)ccc3O)c2c1`: the melting point is 228 °C.

Take `CC(=O)ON1CC(NC(=O)OCc2ccccc2)C1=O` (stereo unspecified): the melting point lay in the range of 130 to 131 °C.

On to `CCC(C)CNC(=O)c1ccc2cccc(Cc3ccc(C(=O)NS(=O)(=O)c4ccccc4C)cc3OC)c2c1` (stereo unspecified), for which the melting point was 204 °C.

Compound `CCCCn1c(=O)c(NC(=O)Nc2cc(Cc3ncc[nH]3)ccc2C(C)(C)C)c(-c2cccc(O)c2)c2cccnc21` displayed a melting point of 160 to 162 °C.

`CS(=O)(=O)Nc1ccccc1OC1CCCCC1=O` (stereo unspecified) registered a melting point of 104 to 106 °C.

Regarding `CCCc1c(OCCCC(=O)NC(C)CCCc2cccnc2)ccc(C(C)=O)c1O` (stereo unspecified), the melting point lay in the range of 97 to 99 °C.

As for `S=c1[nH]c(-c2ccccc2)c(-c2ccccc2)n1Nc1cccc(Cl)c1`, the melting point lay within 178 to 180 °C.

For the compound `CC(=O)NCCC1=C(C(C)C)Cc2cnc3c(c21)CCO3`, the melting point lay in the range of 164 to 166 °C.

`CCC(C(=O)O)N(C(=O)c1cccn1-c1ccc(F)cc1)c1ccc(N2CCCCC2)c(C#N)c1` (stereo unspecified) showed a melting point of 138 to 139 °C.

For `CCOC(=O)CC(=O)c1ccc([N+](=O)[O-])c(OC)c1`, the melting point was 94 to 95 °C.

For `CC(=O)OCCC(=O)C1CCC2C3CCC4CC(O)CCC4(C)C3C(=O)CC12C` (stereo unspecified), the melting point was 113 to 115 °C.

The compound `c1ccc(-c2ccccc2OCCCCOc2ccccc2-c2ccccc2)cc1` came in with a melting point of 62 to 67 °C.

For the compound `C=C(C(=O)c1ccc(-n2ccnc2)nc1)c1ccc(F)cc1F`, the melting point fell in the range of 115 to 116 °C.

Take `COC(=O)NC(=N)CC(C)C`: the melting point lay in the range of 82 to 86 °C.

The compound `Cc1c(NC(=O)C(CSC(=O)CC(C)C)Cc2ccccc2)cccc1C(=O)O` (stereo unspecified) gave a melting point of 118 to 120 °C.

In turn, `CSCC12CCC(O)C=C1CCC1C2CCC2(C)C(O)CCC12` (stereo unspecified) displayed a melting point of 85 to 87 °C.

Consider `Nc1ccc(S(=O)(=O)Nc2cc(Br)nc(Br)c2)cc1`, for which the melting point is 220 to 222 °C.

For `O=C(CCC(O)c1ccccc1)N1CCCCC1` (stereo unspecified), the melting point was in the range of 42 to 44 °C.

`COC(=O)[C@H](O)[C@@H](NC(=O)OC(C)(C)C)c1ccc(F)cc1` showed a melting point of 125 °C.

For `CCCC12CCC(=O)C=C1c1c(cc(OC)c(Cl)c1Cl)O2` (stereo unspecified), the melting point fell in the range of 172 to 173 °C.

In turn, `O=C(O)c1cccc(-c2nc(-c3ccc(C(F)(F)F)cc3)cs2)c1` displayed a melting point of 230 to 231 °C.

For the compound `O=C(O)c1cn(C2CC2)c2cc(N3CC4CC4C3)c(F)cc2c1=O` (stereo unspecified), the melting point is 290 °C.

`Oc1ccc2oc(-c3cccc(O)c3O)nc2c1` yielded a melting point of 239 to 241 °C.

Compound `CCCNC(=O)C(CCC(=O)NCCCOC(C)=O)NC(=O)OCc1ccccc1` (stereo unspecified) returned a melting point of 98 to 102 °C.

Take `Cc1sc2c(Br)c3ccccc3c(-c3cc(Br)c(OC(C)C(=O)O)c(Br)c3)c2c1C` (stereo unspecified): the melting point was in the range of 224 to 225 °C.

`CCCN(CCCCc1c[nH]c2ccc(F)cc12)C1COc2c(ccc3ncccc23)C1` (stereo unspecified) returned a melting point of 164 °C.

For the compound `N#CCCn1c(=N)sc2cc(OC(F)(F)F)ccc21`, the melting point turned out to be 180 °C.

On to `CN1COc2c(N3CC4CCOC4(CNC(=O)OC(C)(C)C)C3)c(F)cc3c(=O)c(C(=O)O)cn1c23` (stereo unspecified), for which the melting point was found to be 176 °C.

`Cc1ccc(-c2cc(C(=O)C=Cc3ccc(C(=O)O)cc3)cc(C(C)(C)C)c2OCC(C)C)cc1` had a melting point of 243 °C.

As for `O=C(O)c1cc2ccccc2c(-c2cccc(I)c2)n1`, the melting point was in the range of 145 to 146 °C.

The compound `CNC1(c2ccccc2Cl)C(=O)N(S(=O)(=O)c2ccc([N+](=O)[O-])cc2)c2ccc(Cl)cc21` (stereo unspecified) returned a melting point of 220 to 221 °C.

`O=c1oc2ccc(OC3CCCCO3)cc2s1` (stereo unspecified): the melting point lay within 61 to 63 °C.

`COc1c(S(N)(=O)=O)cccc1S(=O)(=O)NC(=O)Nc1nc(C)cc(C)n1` yielded a melting point of 218 °C.

`CCCn1c(=O)[nH]c2ccc(C(=O)c3nc(Br)c4ccccn34)cc2c1=O` returned a melting point of 322 °C.

`CC(O)CCCCCCCc1ccc(O)c(O)c1` (stereo unspecified) gave a melting point of 58 to 61 °C.

Take `C[C@@H]1Cc2cc([N+](=O)[O-])sc2[C@H](C)N1CCNC(=O)c1ccc([N+](=O)[O-])cc1` (relative stereo): the melting point is 155 to 156 °C.

The compound `COC(=O)c1ccc(CC(C)NCC(O)c2cc(Cl)c(N)c(Cl)c2)cc1` (stereo unspecified) returned a melting point of 97 to 115 °C.

`CC(=O)c1ccc(-c2ccccc2NC(=N)N(C)C)cc1` gave a melting point of 174 to 175 °C.

Turning to `CC1=CC(OC(=O)c2ccc(O)cc2)C(O)C(C)(C)CC1=O` (stereo unspecified), the melting point is 123 to 125 °C.

`CC(=O)OCCC1CCN(CCCN2c3cc(OCc4ccccc4)ccc3Sc3c2cccc3S(=O)(=O)N(C)C)CC1` displayed a melting point of 94 to 96 °C.

In turn, `CCOC(=O)C1Cc2cc(OC)c(OC)cc2N1C(=O)CCSC(C)=O` (stereo unspecified) displayed a melting point of 104 to 106 °C.

In the case of `O=C(N[C@H](c1ccccc1)[C@@H](O)CO)c1cc2ccccc2[nH]1` (racemic), the melting point is 151 °C.

`CC(=O)N1CCc2ccc(SCc3ccccc3)c(N)c2C1` had a melting point of 133 to 136 °C.

`N#Cc1ccc(Nn2cnnc2)cc1Br`: the melting point was 234 to 236 °C.

As for `Cc1ccc2c(c1)sc1ncc(C=O)n12`, the melting point fell in the range of 170 to 171 °C.

`COC(=O)CNc1cccc(OCc2ccccc2)c1` showed a melting point of 92 to 94 °C.

In the case of `O=NCNC1=Nc2ccc(Cl)cc2C(c2ccccc2F)=NC1`, the melting point is 170 to 172 °C.

`COCc1cccc2sc(C(=O)O)cc12` came in with a melting point of 212 to 214 °C.

Usually melting point stands for the temperature of the solid-liquid transition.

The values are drawn from a melting point compilation (Tetko et al.; mined from patent text by program, amines drawn as free bases though some values may be those of a salt).
